Source: US11440923B2, “Substituted macrocyclic indole derivatives” (Bayer Aktiengesellschaft, priority 2017, dated 2022)
Counter-ions that a name gives are not always drawn. Like-named read-outs stand apart in the source and are kept apart here.

What was measured:
MCL-1 = MCL-1 (Homo sapiens (Human), UniProt Q07820, K194A/K197A/R201A); assay: Protein-protein interaction assay MCL-1/Noxa BH3 peptide (MCL-1 assay, TR-FRET); assay type: binding; conditions: MCL-1 Assay IC50 (median)
Protocol: The dose-dependent inhibition by the compounds described in this invention of the interaction between MCL-1 and the BH3 domain of Noxa (both human) was determined using a steady state binding competition assay with time-resolved fluorescence energy transfer (TR-FRET) readout. For that purpose MCL-1 (amino acids 173-321, N-terminal fused to Maltose Binding Protein (MBP) SEQ ID 1)) and a synthetic Noxa BH3-derived peptide of sequence Biotin-PEG2-PEG2-PAELEVE-Nva-[…]-amide (SEQ ID 2) served as protein receptor and tracer ligand respectively. The MBP-MCL-1 was purchased from Beryllium (Bedford, Mass., USA). The expression and purification of this protein construct has been described elsewhere (DOI:10.1371/journal.pone.0125010). The Noxa BH3-derived peptide can be obtained from e.g. Biosyntan (Berlin, Germany).
(§1) For that, 100-fold concentrated DMSO solutions were prepared by serial dilutions (1:3.4) of a 2 mM stock solution in a clear, 384-well microtiter plate (Greiner Bio-One, Frickenhausen, Germany). From there, 50 nl were transferred in a dark test plate (Greiner Bio-One, Frickenhausen, Germany). The assay was initiated by addition of 2 μL of a 2,5-fold concentrated MBP-MCL-1 solution (usually for a 1 nM end concentration in 5 μL reaction volume) in aqueous assay buffer [50 mM Tris/HCl pH 7, 100 mM sodium chloride (NaCl), 50 mM potassium fluoride (KF), 0.005% Tween-20, 2 mM DTT, 0.1% bovine gamma globulin (BGG)] to the compounds in the assay plate. This was followed by a 10-minute incubation step at 22° C. for pre-equilibration of the putative complex between MBP-MCL-1 and the compounds.
The mixture was incubated in the dark for one hour at 22° C. and then overnight at 4° C. The formation of MCL-1/Noxa complexes was determined by measuring the resonance energy transfer of the anti-MBP-Eu-cryptate antibody to the streptavidin-XL665 present in the reaction.
(§2) For that purpose, the fluorescence emission at 620 nm and 665 nm after excitation at 330-350 nm was measured in a TR-FRET measuring instrument, for instance a Rubystar or a Pherastar (both from BMG Lab Technologies, Offenburg, Germany) or a Viewlux (Perkin-Elmer). The ratio of the emission at 665 nm and at 622 nm was used as indicator of the amount of MCL-1/NOXA complexes present.
(§3) The resulting data (ratio) were normalized, taking 0% inhibition as the mean value of control measurements (usually 32 data points) where all reagents were included. In this case 50 nl DMSO were used instead of compounds. […] IC50 values were determined by regression analysis based on a 4 parameter equation (minimum, maximum, IC50, Hill; Y=Max+(Min−Max)/(1+(X/IC50)^Hill) using the Screener Software (Genedata).

SUDHL5 cells [1] = assay: Induction of cytotoxicity in SUDHL5 cells (Assay 6); assay type: cell-based; conditions: 5 h, CellTiter-Glo, read-out: Cytotox SUDHL5 IC50 (median)
Method in brief: (§4)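 Following overnight seeding at 37 °C, cells are treated with compound for 5 h, after which CellTiter-Glo reagent is added and luminescence measured following a 15 min room-temperature shake.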

SUDHL5 cells [2] = assay: Antiproliferation assay SUDHL5 (Assay 7); assay type: cell-based; conditions: 72 h, CellTiter-Glo, read-out: Antiproli SUDHL5 IC50 (median)
Method in brief: (§5)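 After overnight attachment at 37 °C, cells received compound for 72 h in a humidified incubator. Viability was read by CellTiter-Glo luminescence. A separate day 0 plate defined starting cell number for IC50 fitting against DMSO controls.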

SUDHL5 cells [3] = assay: Induction of caspase-3/7 activity in SUDHL5 cells (Assay 4); assay type: cell-based
Method in brief: (§6)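 Read-out: Caspase-Glo 3/7 luminescence (1 h, 37 °C) after cells, plated overnight, were treated with compounds for 3 h at 37 °C. Signal corrected for cell-free medium background and expressed relative to DMSO control mean.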

SUDHL10 cells [4] = assay: Induction of caspase-3/7 activity in SUDHL10 cells (Assay 4); assay type: cell-based
Method in brief: as §6

SUDHL10 cells [5] = assay: Induction of cytotoxicity in SUDHL10 cells (Assay 6); assay type: cell-based; conditions: 5 h, CellTiter-Glo, read-out: Cytotox SUDHL10 IC50 (median)
Method in brief: as §4

AMO-1 cells = assay: Antiproliferation assay AMO-1 (Assay 7); assay type: cell-based; conditions: 72 h, CellTiter-Glo, read-out: Antiproli AMO-1 IC50 median
Method in brief: as §5

HMC-1-8 cells = assay: Antiproliferation assay HMC-1-8 (Assay 7); assay type: cell-based
Method in brief: as §5

BCL-XL = BCL-XL (Homo sapiens (Human), UniProt Q07817); assay: Protein-protein interaction assay BCL-XL/Bad BH3 peptide (BCL-XL assay, TR-FRET); assay type: binding; conditions: read-out: BCL-XL Assay IC50 (median)
Chain of BCL-XL (Q07817 1-212): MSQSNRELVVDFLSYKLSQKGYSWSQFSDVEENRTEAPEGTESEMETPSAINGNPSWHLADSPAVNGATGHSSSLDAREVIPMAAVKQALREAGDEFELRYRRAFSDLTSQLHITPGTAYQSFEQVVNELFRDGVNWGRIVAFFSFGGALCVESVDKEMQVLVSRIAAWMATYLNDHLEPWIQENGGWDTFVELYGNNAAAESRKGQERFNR
Protocol: Assay 2 Protein-Protein Interaction Assay: BCL-XL/Bad BH3 Peptide (BCL-XL Assay)
The dose-dependent inhibition by the compounds described in this invention of the interaction between BCL-XL and the BH3 domain of Bad (both human) was determined using a steady state binding competition assay with time-resolved fluorescence energy transfer (TR-FRET) readout. For that purpose BCL-XL (amino acids 1-212, C-terminal fused to a hexahistidine (6×His) tag (SEQ ID 3) and a synthetic Bad BH3-derived peptide of sequence Biotin-PEG2-PEG2-[…]-Nle-[…]-amide (SEQ ID 4) served as protein receptor and tracer ligand respectively. The recombinant BCL-XL protein (expressed in E. coli) was purchased from BPS Bioscience (San Diego, Calif., USA). The Bad BH3-derived peptide can be obtained from e.g. Biosyntan (Berlin, Germany).
as §1, with “In the assay 11 different concentrations of each compound (0.1 nM, 0.33 nM, 1.1 nM, 3.8 nM, 13 nM, 44 nM, 0.15 μM, 0.51 μM, 1.7 μM, 5.9 μM and 20 μM) were typically measured as duplicates in the same microtiter plate. For” for “For”, “His-BCL-XL” for “MBP-MCL-1”, “compounds. After that, 3 μL of a 1.67-fold concentrated solution (in assay buffer) consisting of Bad BH3-derived peptide (1 nM end concentration) and TR-FRET detection reagents [1.67 nM anti-His-Eu cryptate and 1.67 nM streptavidin-XL665 (both from Cisbio Bioassays, Codolet, France)], were added.” for “compounds.”
as §2, with “The mixture was incubated in the dark for one hour at 22° C. and then overnight at 4° C. The formation of BCL-XL/Bad complexes was determined by measuring the resonance energy transfer of the anti-His- Eu-cryptate antibody to the streptavidin-XL665 present in the reaction. For” for “For”, “BCL-XL/Bad” for “MCL-1/NOXA”
as §3

[6] = Homo sapiens, SU-DHL-5, 3 h, caspase-3/7 induction, 3 h; read-out: Caspase SUDHL5 EC50 (median)
[7] = Homo sapiens, SU-DHL10, 3 h, caspase-3/7 induction, 3 h; read-out: Caspase SUDHL10 EC50 (median)
[8] = 72 h, CellTiter-Glo, read-out: Antiproli HMC-1-8 IC50 median
[9] = read-out: Caspase SUDHL5 EC50 (median); caspase-3/7 induction, 3 h
[10] = read-out: Caspase SUDHL10 EC50 (median); caspase-3/7 induction, 3 h
[11] = read-out: Antiproli HMC-1-8 IC50 median; 72 h, CellTiter-Glo

Chain of MCL-1 (Q07820 whole entry, looked up, stated change not applied, the tested form may be a part): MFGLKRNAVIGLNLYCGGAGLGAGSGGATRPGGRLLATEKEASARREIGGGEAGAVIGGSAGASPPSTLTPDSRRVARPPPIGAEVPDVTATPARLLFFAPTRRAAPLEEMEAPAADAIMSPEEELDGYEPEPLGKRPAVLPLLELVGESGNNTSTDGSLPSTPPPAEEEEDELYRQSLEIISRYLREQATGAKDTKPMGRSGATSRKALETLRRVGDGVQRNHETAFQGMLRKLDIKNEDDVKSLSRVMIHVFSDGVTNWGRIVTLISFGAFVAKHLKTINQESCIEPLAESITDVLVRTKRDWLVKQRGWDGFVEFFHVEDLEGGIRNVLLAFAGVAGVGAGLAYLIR

SMILES	IC50 (MCL-1) [nM]	IC50 (SUDHL5 cells [2]; Homo sapiens, SU-DHL-5, 72 h) [nM]	EC50 (SUDHL5 cells [3]; [6]) [nM]	EC50 (SUDHL10 cells [4]; [7]) [nM]	IC50 (BCL-XL) [µM]	EC50 (SUDHL5 cells [3]; [9]) [nM]	EC50 (SUDHL10 cells [4]; [10]) [nM]	IC50 (SUDHL5 cells [2]) [nM]	EC50 (SUDHL5 cells [3]; caspase-3/7 induction, 3 h; read-out: Caspase SUDHL5 EC50 (median)) [nM]	EC50 (SUDHL10 cells [4]; caspase-3/7 induction, 3 h; read-out: Caspase SUDHL10 EC50 (median)) [nM]	IC50 (SUDHL5 cells [1]; Homo sapiens, SU-DHL-5, 5 h) [nM]	IC50 (SUDHL10 cells [5]; Homo sapiens, SU-DHL10, 5 h) [nM]	IC50 (AMO-1 cells; Homo sapiens, AMO1, 72 h) [nM]	IC50 (HMC-1-8 cells; [8]) [µM]	IC50 (AMO-1 cells) [nM]	IC50 (SUDHL5 cells [1]) [nM]	IC50 (HMC-1-8 cells; [11]) [µM]	IC50 (SUDHL10 cells [5]) [nM]
Cc1c2c(nn1C)C(CCN1CCOCC1)OCCCCn1c(C(=O)O)c(CCCOc3cccc4ccccc34)c3cccc-2c31 (racemic) [Example 4, (rac)-2,3-dimethyl-15-[2-(morpholin-4-yl)ethyl]-7-[3-(naphthalen-1-yloxy)propyl]-2,10,11,12,13,15-hexahydropyrazolo[4′,3′:9,10][1,6]oxazacycloundecino[8,7,6-hi]indole-8-carboxylic Acid (Mixture of Stereoisomers)]	1.1	500	520	990	–	–	–	–	–	–	550	1100	–	–	–	–	–	–
CCc1c2c(nn1C)C(C(F)(F)F)OCCCCn1c(C(=O)O)c(CCCOc3cccc4ccccc34)c3ccc(Cl)c-2c31 (single isomer, unassigned; enantiomer 2) [Example 34, (−)-4-chloro-3-ethyl-2-methyl-7-{3-[(naphthalen-1-yl)oxy]propyl}-15-(trifluoromethyl)-2,10,11,12,13,15-hexahydropyrazolo[4′,3′:9,10][1,6]oxazacycloundecino[8,7,6-hi]indole-8-carboxylic Acid—N-ethylethanamine Salt (Enantiomer 2)]	–	–	–	–	> 20	> 33000	> 33000	–	–	–	–	–	–	–	30900	7100	20.7	26000
CCc1c2c(nn1C)C(C1CC1)OCCCCn1c(C(=O)O)c(CCCOc3cccc4cc(F)ccc34)c3ccc(Cl)c-2c31 (single isomer, unassigned; enantiomer 2) [Example 40, (−)-4-chloro-15-cyclopropyl-3-ethyl-7-{3-[(6-fluoronaphthalen-1-yl)oxy]propyl}-2-methyl-2,10,11,12,13,15-hexahydropyrazolo[4′,3′:9,10][1,6]oxazacycloundecino[8,7,6-hi]indole-8-carboxylic Acid—N-ethylethanamine Salt (Enantiomer 2)]	–	–	–	–	> 20	> 33000	25000	–	–	–	–	–	–	–	–	20000	23.2	29000
Cc1c2c(nn1C)C(CCN1CCOCC1)OCCCCn1c(C(=O)O)c(CCCOc3cccc4ccccc34)c3cccc-2c31 (single isomer, unassigned; stereoisomer 1) [Example 5, 2,3-dimethyl-15-[2-(morpholin-4-yl)ethyl]-7-[3-(naphthalen-1-yloxy)propyl]-2,10,11,12,13,15-hexahydropyrazolo[4′,3′:9,10][1,6]oxazacycloundecino[8,7,6-hi]indole-8-carboxylic Acid (Stereoisomer 1)]	1.2	–	–	–	–	–	–	440	300	520	–	–	–	–	–	340	–	490

Second part, led by results:

IC50 (MCL-1) [nM]	IC50 (SUDHL5 cells [2]; Homo sapiens, SU-DHL-5, 72 h) [nM]	EC50 (SUDHL5 cells [3]; [6]) [nM]	EC50 (SUDHL10 cells [4]; [7]) [nM]	IC50 (BCL-XL) [µM]	EC50 (SUDHL5 cells [3]; [9]) [nM]	EC50 (SUDHL10 cells [4]; [10]) [nM]	IC50 (SUDHL5 cells [2]) [nM]	EC50 (SUDHL5 cells [3]; caspase-3/7 induction, 3 h; read-out: Caspase SUDHL5 EC50 (median)) [nM]	EC50 (SUDHL10 cells [4]; caspase-3/7 induction, 3 h; read-out: Caspase SUDHL10 EC50 (median)) [nM]	SMILES	IC50 (SUDHL5 cells [1]; Homo sapiens, SU-DHL-5, 5 h) [nM]	IC50 (SUDHL10 cells [5]; Homo sapiens, SU-DHL10, 5 h) [nM]	IC50 (AMO-1 cells; Homo sapiens, AMO1, 72 h) [nM]	IC50 (HMC-1-8 cells; [8]) [µM]	IC50 (AMO-1 cells) [nM]	IC50 (SUDHL5 cells [1]) [nM]	IC50 (HMC-1-8 cells; [11]) [µM]	IC50 (SUDHL10 cells [5]) [nM]
1.7	71	31	37	–	–	–	–	–	–	CCc1c2c(nn1C)C(CCN1CC(F)(F)C1)OCCCCn1c(C(=O)O)c(CCCOc3cccc4cc(F)ccc34)c3ccc(Cl)c-2c31 (racemic) [Example 77, (rac)-4-chloro-(15-rac)-[2-(3,3-difluoroazetidin-1-yl)ethyl]-3-ethyl-7-{3-[(6-fluoronaphthalen-1-yl)oxy]propyl}-2-methyl-2,10,11,12,13,15-hexahydropyrazolo[4′,3′:9,10][1,6]oxazacycloundecino[8,7,6-hi]indole-8-carboxylic Acid]	45	100	31.5	0.52	–	–	–	–
3.5	170	140	130	–	–	–	–	–	–	CCc1c2c(nn1C)C(CCN(C)OC)OCCCCn1c(C(=O)O)c(CCCOc3cccc4cc(F)ccc34)c3ccc(Cl)c-2c31 (racemic) [Example 80, (rac)-4-chloro-3-ethyl-7-{3-[(6-fluoronaphthalen-1-yl)oxy]propyl}-(15-rac)-{2-[methoxy(methyl)amino]ethyl}-2-methyl-2,10,11,12,13,15-hexahydropyrazolo[4′,3′:9,10][1,6]oxazacycloundecino[8,7,6-hi]indole-8-carboxylic Acid]	150	250	47.4	1.59	–	–	–	–
